Laboratory results as given in patent US20060167001A1, “Pyridazinone-derivatives as pde4 inhibitors” (priority 2002, published 2006).
Where a name gives a salt, the structure may show the parent alone.

What was measured:
PDE3 (cGMP-inhibited) = molecular target: T1, PDE3 (cGMP-inhibited) (Homo sapiens, UniProt Q14432); assay: Inhibition of PDE3 activity, Method A (homogenates of human platelets); type: biochemical; details: read-out: PDE3 Inhibition [measured as −logIC50 (mol/l)] (converted)
T1 construct: investigated in homogenates of human platelets; from tissue; host or cells: homogenates of human platelets
T1 sequence (Q14432 whole entry): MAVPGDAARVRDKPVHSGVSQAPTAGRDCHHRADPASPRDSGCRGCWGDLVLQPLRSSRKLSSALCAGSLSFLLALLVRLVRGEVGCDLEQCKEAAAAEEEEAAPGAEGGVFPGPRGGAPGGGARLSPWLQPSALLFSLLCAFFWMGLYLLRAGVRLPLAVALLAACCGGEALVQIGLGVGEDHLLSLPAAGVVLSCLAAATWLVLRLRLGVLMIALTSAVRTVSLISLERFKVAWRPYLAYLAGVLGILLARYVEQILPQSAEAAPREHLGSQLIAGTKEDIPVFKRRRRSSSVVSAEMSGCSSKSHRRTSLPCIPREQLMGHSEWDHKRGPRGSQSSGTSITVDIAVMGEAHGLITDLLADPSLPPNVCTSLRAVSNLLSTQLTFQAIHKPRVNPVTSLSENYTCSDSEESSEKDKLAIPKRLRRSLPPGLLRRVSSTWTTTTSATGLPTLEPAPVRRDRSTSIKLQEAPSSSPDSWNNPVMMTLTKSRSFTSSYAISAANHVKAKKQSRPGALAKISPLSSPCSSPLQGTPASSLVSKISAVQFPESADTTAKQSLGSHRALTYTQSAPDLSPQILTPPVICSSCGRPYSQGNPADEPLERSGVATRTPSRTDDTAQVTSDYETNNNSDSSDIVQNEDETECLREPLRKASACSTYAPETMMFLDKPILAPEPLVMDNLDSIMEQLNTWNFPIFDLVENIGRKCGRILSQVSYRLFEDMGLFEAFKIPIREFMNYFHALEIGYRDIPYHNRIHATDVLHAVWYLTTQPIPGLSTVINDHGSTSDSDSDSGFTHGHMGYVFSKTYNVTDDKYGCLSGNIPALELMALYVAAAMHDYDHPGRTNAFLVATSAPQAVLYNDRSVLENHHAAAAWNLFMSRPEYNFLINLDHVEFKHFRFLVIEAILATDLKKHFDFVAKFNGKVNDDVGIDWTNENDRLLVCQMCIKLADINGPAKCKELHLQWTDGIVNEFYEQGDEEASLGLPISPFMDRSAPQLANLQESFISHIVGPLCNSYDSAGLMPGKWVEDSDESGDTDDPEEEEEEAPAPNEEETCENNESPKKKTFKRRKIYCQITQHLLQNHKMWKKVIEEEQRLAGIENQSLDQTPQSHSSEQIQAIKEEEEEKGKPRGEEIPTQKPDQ
Experimental: The PDE activity was determined according to Thompson et al. (Adv Cycl Nucl Res 10: 69-92, 1979) with some modifications (Bauer and Schwabe, Naunyn-Schmiedeberg's Arch Pharmacol 311: 193-198, 1980). The test samples contained 20 mM Tris (pH 7.4), 5 mM MgCl2, 0.5 μM cAMP or cGMP, [^3H]cAMP or [^3H]cGMP (about 30 000 cpm/sample), the PDE isoenzyme-specific additives described in greater detail below, the indicated concentrations of inhibitor and an aliquot of the enzyme solution in a total sample volume of 200 μl. Dilution series of the compounds according to the invention were prepared in DMSO and further diluted in the samples [1:100 (v/v)], to give the desired end concentration of the inhibitors at a DMSO concentration of 1% (v/v), which for its part has only a minute effect on PDE activity.
After preincubation at 37° C. for 5 minutes, the reaction was started by addition of the substrate (cAMP or cGMP). The samples were incubated at 37° C. for a further 15 min. The reaction was terminated by addition of 50 μl 0.2 N HCl. After cooling on ice for 10 minutes and addition of 25 μg 5′-nucleotidase (snake venom from Crotalus atrox), the mixture was again incubated at 37° C. for 10 mih and the samples were then applied to QAE Sephadex A-25 columns (sample volume 1 ml). The columns were eluted with 2 ml of 30 mM ammonium formate (pH 6.0). The radioactivity of the eluate was measured and corrected by the corresponding blank values (measured in the presence of denatured protein); the blank values were less than 5% of the total radioactivity. In no case did the proportion of hydrolyzed nucleotide exceed 30% of the original substrate concentration.
PDE3 (cGMP-inhibited) was investigated in homogenates of human platelets (see Schudt et al., Biochem Pharmacol 1991: 42, 153-162) using cAMP or cGMP as substrate.
The IC50 values were determined from the concentration-inhibition curves by nonlinear regression.

melting point [°C]	IC50 (PDE3 (cGMP-inhibited)) [nM]	Structure (SMILES)
91 to 95	–	COc1ccc(C2=NN(C3CCNCC3)C(=O)CC2C)cc1OC.Cl (stereo not drawn)
109 to 110	–	COc1ccc(C2=NN(C3CCN(C(=O)CN4CCN(c5ccccc5OC)CC4)CC3)C(=O)CC2)cc1OC.Cl.Cl
145 to 148	–	COc1ccc(C2=NN(C3CCN(CC(=O)N4CCOCC4)CC3)C(=O)CC2)cc1OC (as salt: hydrochloride) [Compound 10, 6-(3,4-Dimethoxy-phenyl)-2-[1-(2-morpholin4-yl-2-oxo-ethyl)-piperidin-4-yl]-4,5-dihydro-2-pyridazin-3-one hydrochloride]
149 to 152	1740	COc1ccc(C2=NN(C3CCN(C(C)=O)CC3)C(=O)CC2C)cc1OC (stereo not drawn) [Compound 4, 2-(1-Acetyl-piperidin-4-yl)-6-(3,4-dimethoxy-phenyl)-5-methyl-4,5-dihydro-2H-pyridazin-3-one]
137 to 138	1780	COc1ccc(C2=NN(C3CCN(C(=O)N4CCOCC4)CC3)C(=O)CC2C)cc1OC (stereo not drawn) [Compound 5]
241 to 244	5890	COc1ccc(C2=NN(C3CCN(Cc4cccnc4)CC3)C(=O)CC2C)cc1OC.Cl.Cl (stereo not drawn) [Compound 6, 6-(3,4-Dimethoxy-phenyl)-5-methyl-2-(1-pyridin-3-ylmethyl-piperidin-4-yl)-4,5-dihydro-2H-pyridazin-3-one dihydrochloride]
201 to 203	> 10000	CCN1CCN(C(=O)N2CCC(N3N=C(c4ccc(OC)c(OC)c4)CCC3=O)CC2)C(=O)C1=O [Compound 7]
151 to 154	> 10000	COc1ccc(C2=NN(C3CCN(C(=O)N4CCN(C)CC4)CC3)C(=O)CC2)cc1OC.Cl [Compound 8, 6-(3,4-Dimethoxy-phenyl)-2-{1-[1-(4-methyl-piperazin-1-yl)-methanoyl]-piperidin-4-yl}-4,5-dihydro-2H-pyridazin-3-one hydrochloride]
191 to 193	245	COc1ccc(C2=NN(C3CCN(S(=O)(=O)c4cccc5c(N(C)C)cccc45)CC3)C(=O)CC2)cc1OC [Compound 9, 6-(3,4-Dimethoxy-phenyl)-2-[1-(5-dimethylamino-naphthalene-1-sulfonyl)-piperidin-4-yl]-4,5-dihydro-2-pyridazin-3-one]
–	4470	COc1ccc(C2=NN(C3CCN(CC(=O)N4CCOCC4)CC3)C(=O)CC2)cc1OC [Compound 10, 6-(3,4-Dimethoxy-phenyl)-2-[1-(2-morpholin4-yl-2-oxo-ethyl)-piperidin-4-yl]-4,5-dihydro-2-pyridazin-3-one hydrochloride]
179 to 184	501	COc1ccc(C2=NN(C3CCN(S(=O)(=O)c4ccc(C)cc4)CC3)C(=O)CC2)cc1OC [Compound 11, 6-(3,4-Dimethoxy-phenyl)-2-[1-(toluene-4-sulfonyl)-piperidin-4-yl]-4,5-dihydro-2H-pyridazin-3-one]
164 to 166	251	COc1ccc(C2=NN(C3CCN(S(C)(=O)=O)CC3)C(=O)CC2)cc1OC [Compound 12, 6-(3,4-Dimethoxy-phenyl)-2-(1-methanesulfonyl-piperidin-4-yl)-4,5-dihydro-2H-pyridazin-3-one]
185 to 186	–	COc1ccc(C2=NN(C3CCN(S(=O)(=O)c4ccc(Cl)cc4)CC3)C(=O)CC2)cc1OC [Compound 13, 2-[1-(4-Chloro-benzenesulfonyl)-piperidin-4-yl]-6-(3,4-dimethoxy-phenyl)-4,5-dihydro-2H-pyridazin-3-one]
114	251	COc1ccc(C2=NN(C3CCN(S(=O)(=O)Cc4ccccc4)CC3)C(=O)CC2)cc1OC [Compound 14, 6-(3,4-Dimethoxy-phenyl)-2-(1-phenylmethanesulfonyl-piperidin-4-yl)-4,5-dihydro-2H-pyridazin-3-one]
197 to 198	501	COc1ccc(S(=O)(=O)N2CCC(N3N=C(c4ccc(OC)c(OC)c4)CCC3=O)CC2)cc1 [Compound 15, 6-(3,4-Dimethoxy-phenyl)-2-[1-(4-methoxy-benzenesulfonyl)-piperidin-4-yl]-4,5-dihydro-2H-pyridazin-3-one]
158 to 160	79.4	COc1ccc(C2=NN(C3CCN(S(=O)(=O)c4ccccc4C#N)CC3)C(=O)CC2)cc1OC [Compound 18, 2-{4-[3-(3,4-Dimethoxy-phenyl)-6-oxo-5,6-dihydro-4H-pyridazin-1-yl]-piperidine-1-sulfonyl}-benzonitrile]
198 to 199	158	COc1ccc(C2=NN(C3CCN(S(=O)(=O)c4ccccc4F)CC3)C(=O)CC2)cc1OC [Compound 20, 6-(3,4-Dimethoxy-phenyl)-2-[1-(2-fluoro-benzenesulfonyl)-Piperidin-4-yl]-4,5-dihydro-2H-pyridazin-3-one]
118 to 119	100	COc1ccc(C2=NN(C3CCN(S(=O)(=O)c4ccccc4OC(F)(F)F)CC3)C(=O)CC2)cc1OC [Compound 21, 6-(3,4-Dimethoxy-phenyl)-2-[1-(2-trifluoromethoxy-benzenesulfonyl)-piperidin-4-yl]-4,5-dihydro-2H-pyridazin-3-one]
103 to 106	–	COc1ccc(C2=NN(C3CCN(S(=O)(=O)N(C)C)CC3)C(=O)CC2)cc1OC [Compound 22, 4-[3-(3,4-Dimethoxy-phenyl)-6-oxo-5,6-dihydro-4H-pyridazin-1-yl]-piperidine-1-sulfonic acid dimethylamide]
162 to 164	–	COc1ccc(C2=NN(C3CCN(C(=O)c4cccnc4)CC3)C(=O)CC2)cc1OC [Compound 24, 6-(3,4-Dimethoxy-phenyl)-2-[1-(1-pyridin-3-yl-methanoyl)-piperidin-4-yl]-4,5-dihydro-2H-pyridazin-3-one]
76 to 78	–	COc1ccc(C2=NN(C3CCN(C(=O)NC(C)(C)C)CC3)C(=O)CC2)cc1OC [Compound 26, 4-[3-(3,4-Dimethoxy-phenyl)-6-oxo-5,6-dihydro-4H-pyridazin-1-yl]-piperidine-1-carboxylic acid tert-butylamide]
121 to 122	> 10000	COc1ccc(C2=NN(C3CCN(CC(=O)N(C)C)CC3)C(=O)CC2)cc1OC.Cl [Compound 27, 2-{4-[3-(3,4-Dimethoxy-phenyl)-6-oxo-5,6-dihydro-4H-pyridazin-1-yl]-piperidin-1-yl}-N,N-dimethylacetamide hydrochloride]
